# Source: patent US9783505B2, “Substituted diaminopyrimidyl compounds, compositions thereof, and methods of treatment therewith” (Signal Pharmaceuticals, LLC, priority 2013, dated 2017)
# pIC50: −log10 of the molar value.
# Biological target: T1, His-PKC-theta (Homo sapiens, UniProt Q04759)
# T1 construct: His; purchased Invitrogen
# Assay: PKC-theta Assay (384-well time resolved fluorescence, IMAP TR-FRET)
# Assay type: biochemical
# Details: Table 2; read-out: Act. Level (IC50 in the PKC-theta Assay)
# Summary of the method: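 Enzyme at 142 pM phosphorylated 200 nM Fam-S6 peptide with 10 μM ATP in 50 mM HEPES pH 7.6, 10 mM MgCl2, 1 mM DTT for 2 h at room temperature. Product was detected after overnight incubation with IMAP binding reagent and Tb donor by time-resolved FRET.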
# T1 sequence (Q04759 whole entry): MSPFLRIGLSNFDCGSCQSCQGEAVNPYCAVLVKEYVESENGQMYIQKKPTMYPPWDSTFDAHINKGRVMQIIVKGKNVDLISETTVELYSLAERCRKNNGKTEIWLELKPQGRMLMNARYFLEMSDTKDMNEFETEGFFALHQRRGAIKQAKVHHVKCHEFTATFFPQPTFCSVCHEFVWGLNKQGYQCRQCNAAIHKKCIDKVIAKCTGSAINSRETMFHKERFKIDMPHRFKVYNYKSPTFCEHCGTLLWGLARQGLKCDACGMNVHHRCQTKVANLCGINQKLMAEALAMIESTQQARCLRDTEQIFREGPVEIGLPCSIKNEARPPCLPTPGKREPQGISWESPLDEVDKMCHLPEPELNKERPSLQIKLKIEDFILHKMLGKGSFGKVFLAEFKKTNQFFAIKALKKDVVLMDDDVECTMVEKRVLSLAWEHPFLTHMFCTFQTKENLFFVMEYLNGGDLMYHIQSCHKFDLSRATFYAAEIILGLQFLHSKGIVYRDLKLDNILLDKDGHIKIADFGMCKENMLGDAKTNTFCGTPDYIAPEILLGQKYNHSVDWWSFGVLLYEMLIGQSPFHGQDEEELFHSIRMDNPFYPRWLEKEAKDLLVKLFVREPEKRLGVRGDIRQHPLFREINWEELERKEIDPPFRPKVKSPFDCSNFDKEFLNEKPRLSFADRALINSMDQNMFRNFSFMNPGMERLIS
row,Compound,pIC50
1,CC1(C)C[C@H](Nc2nc(NCCc3ccc(CO)cc3)ncc2C#N)CC[C@@H]1O [Cmpd 57],6.10 to 7.00
2,CC1(C)C[C@H](Nc2nc(NCCc3ccc(C#N)c(C(F)(F)F)c3)ncc2C#N)CC[C@@H]1O [Cmpd 140],6.10 to 7.00
3,COCCOc1ccc(CCNc2ncc(C#N)c(N[C@@H]3CC[C@H](O)C(C)(C)C3)n2)cc1 [Cmpd 62],6.10 to 7.00
4,N#Cc1cnc(NCCc2ccc(F)c(Cl)c2)nc1N[C@H]1CC[C@@H](C(N)=O)CC1 [Cmpd 90],> 7.00
5,N#Cc1cnc(NCCc2cccc(F)c2)nc1N[C@H]1CC[C@@H](O)CC1 [Cmpd 198],6.10 to 7.00
6,CC1(C)C[C@H](Nc2nc(NCCc3ccc(S(N)(=O)=O)cc3)ncc2C#N)CC[C@@H]1O [Cmpd 65],6.10 to 7.00

# Now from value to compound:
row,pIC50,Compound
1,5.70 to 6.10,CC(O)(CNc1ncc(C#N)c(N[C@@H]2CC[C@H](O)C(C)(C)C2)n1)c1ccccc1 (stereo partly drawn) [Cmpd 56]
2,6.10 to 7.00,COc1cccc(CCNc2ncc(C#N)c(N[C@@H]3CC[C@H](O)C(C)(C)C3)n2)c1OC [Cmpd 96]
3,> 7.00,CC1(C)C[C@H](Nc2nc(NCCc3ccc(O)cc3)ncc2C#N)CC[C@@H]1O [Cmpd 29]
4,6.10 to 7.00,CC1(C)[C@@H](O)C[C@H]1Nc1nc(NCCc2ccc(C#N)cc2)ncc1C#N [Cmpd 38]
5,6.10 to 7.00,CC1(C)C[C@H](Nc2nc(NCCc3ccc(C#N)cc3)ncc2C#N)CC[C@@H]1O [Cmpd 37]
6,6.10 to 7.00,CC1(C)[C@@H](O)C[C@H]1Nc1nc(NCCc2ccc(C#N)c(Cl)c2)ncc1C#N [Cmpd 142]
7,6.10 to 7.00,CC1(C)C[C@H](Nc2nc(NCCc3ccc(Cl)cc3)ncc2C#N)CC[C@@H]1O [Cmpd 33]
8,6.10 to 7.00,CC1(C)[C@@H](O)C[C@H]1Nc1nc(NCCc2ccc(Oc3ccccc3)cc2)ncc1C#N [Cmpd 119]
9,5.00 to 5.70,CC(C)(CNc1ncc(C#N)c(N[C@@H]2C[C@H](O)C2(C)C)n1)c1cccc(Cl)c1 [Cmpd 40]
10,> 7.00,CC1(C)C[C@H](Nc2nc(NCCc3ccc(S(N)(=O)=O)c(Cl)c3)ncc2C#N)CC[C@@H]1O [Cmpd 186]
11,6.10 to 7.00,CC1(C)C[C@H](Nc2nc(NCCc3ccccc3C(F)(F)F)ncc2C#N)CC[C@@H]1O [Cmpd 97]
12,6.10 to 7.00,CC1(C)[C@@H](O)C[C@H]1Nc1nc(NCCc2ccc(F)cc2)ncc1C#N [Cmpd 102]

# Same assay, conditions: read-out: Act. Level (IC50 in the PKC-theta Assay)
row,Compound,pIC50
1,CC1(C)C[C@H](Nc2nc(NCCc3cccc4cccnc34)ncc2C#N)CC[C@@H]1O [Cmpd 147],6.10 to 7.00
2,Cc1cnccc1CCNc1ncc(C#N)c(N[C@H]2CC[C@@H](O)CC2)n1 [Cmpd 152],5.00 to 5.70
3,CC1(C)C[C@H](Nc2nc(NCc3cncnc3C(F)(F)F)ncc2C(F)(F)F)CC[C@@H]1O [Cmpd 30],> 7.00
4,CC1(C)[C@@H](CO)C[C@@H]1Nc1nc(NCc2cnccc2C(F)(F)F)ncc1C(F)(F)F [Cmpd 131],6.10 to 7.00
5,COC1CC(Nc2nc(NCc3cnccc3C(F)(F)F)ncc2C(F)(F)F)C1(C)C (stereo not drawn) [Cmpd 102],6.10 to 7.00
6,N#Cc1cnc(NCCC2(O)C(=O)Nc3ccccc32)nc1N[C@H]1CC[C@@H](O)CC1 (stereo partly drawn) [Cmpd 162],5.00 to 5.70
7,Cc1ccnn1CCNc1ncc(C#N)c(N[C@@H]2CC[C@H](O)C(C)(C)C2)n1 [Cmpd 193],5.00 to 5.70
8,CC1(C)[C@@H](CO)C[C@H]1Nc1nc(NCc2cnccc2C(F)(F)F)ncc1C(F)(F)F [Cmpd 32],> 7.00
9,Cc1ccn(CCNc2ncc(C#N)c(N[C@@H]3CC[C@H](O)C(C)(C)C3)n2)n1 [Cmpd 194],5.00 to 5.70

# Other lines, results leading:
row,pIC50,Compound
1,6.10 to 7.00,CC1(C)C(O)C[C@@H]1Nc1nc(NCc2cncnc2OCCC(F)(F)F)ncc1C#N (stereo partly drawn) [Cmpd 107]
2,6.10 to 7.00,CC(F)(F)COc1ncncc1CNc1ncc(C#N)c(N[C@H]2C[C@H](O)C2(C)C)n1 [Cmpd 121]
3,5.70 to 6.10,CCc1ncncc1CNc1ncc(C#N)c(N[C@H]2C[C@H](O)C2(C)C)n1 [Cmpd 142]
4,6.10 to 7.00,CC1(C)C[C@H](Nc2nc(NCCc3c[nH]c4cc(Cl)ccc34)ncc2C#N)CC[C@@H]1O [Cmpd 173]
5,> 7.00,CC1(C)[C@@H](CO)C[C@H]1Nc1nc(NCc2cnccc2C(F)(F)F)ncc1C#N [Cmpd 64]
6,5.70 to 6.10,CC1(C)C[C@H](Nc2nc(NCCc3n[nH]c4ccccc34)ncc2C#N)CC[C@@H]1O [Cmpd 176]
